From patent publication US10544137B2, “PI3K inhibitor, and pharmaceutically acceptable salt, polycrystalline form, and application thereof” (SHANGHAI HAIYAN PHARMACEUTICAL TECHNOLOGY CO., LTD., priority 2016, dated 2020)
Converted amounts (≈) assume the structure as drawn. One block for each compound: values may come before it.

Legend:
Type in all cases: physicochemical
[1] = Hygroscopicity experiment (DVS); settings: for hygroscopicity (in words): DVS, 25° C.; for moisture absorbed: humidity increased to 80% RH at 25° C.
Description: The Dynamic Vapor Sorption (DVS) curve was acquired on the DVS Intrinsic of Surface Measurement Systems.
The DVS test results of the crystal form A and the crystal form B-1 were shown in FIG. 26 and FIG. 27, respectively.
The DVS test results of the crystal form C, crystal form D-2, crystal form E, and crystal form F were shown in FIG. 28, FIG. 29, FIG. 30, and FIG. 31.

[2] = Solubility experiment in 0.1M HCl, buffers and water; settings: for Solubility (mg/mL) 0.1M HCl / Solubility (mg/mL) pH 4.5 / Solubility (mg/mL) pH 6.8 / Solubility (mg/mL) H2O: ambient temperature; for Solubility (mg/mL) pH 4.5: pH 4.5 buffer; for Solubility (mg/mL) pH 6.8: pH 6.8 buffer; for solubility in water compared with the free base (in words) / Solubility (mg/mL) H2O: water
Experimental: The solubilities of the following four kinds of salt and free base sample in 0.1M HCl, pH 4.5 buffer, pH 6.8 buffer, and water were tested at ambient temperature. In the test, the calibration curves of free base and four kinds of salt were plotted. 3 mg of solid samples of free base and four kinds of salt were weighed, respectively, and then 1 ml of the solvent was added, centrifuged after 30 min ultrasound. The supernatant was taken, and injected through the membrane, and the solubility was tested.

[3] = Solid phase stability experiment (sealed at 60° C., HPLC purity); settings: for solid phase stability (in words): 60° C., at 7 days and 21 days
Experimental: 5 mg of samples were weighed and sealed at 60° C., respectively. Another set of samples were sealed and stored at −20° C. as a control at the same time. All samples were characterized by HPLC at 7 days and 21 days to detect changes in purity.

[4] = Solubility of crystal form I in common solvents; settings: ambient temperature; for solubility: thermodynamic from solid
Experimental: The solubility of the crystal form I in 11 common solvents at ambient temperature was tested. In the experiment, the crystal form I was formulated into standard solutions of different concentrations using 50% acetonitrile as solvent according to the following table, and injected to the HPLC instrument. The peak area was recorded and the standard curve was plotted, and the curve equation: y=11.30762x, R^2=0.99998, which has a good linear correlation in a range of 4.9 μg/ml˜499 μg/ml was obtained. 10-80 mg of crystal form I was weighed into 0.5-10 ml of different solutions in the following table to prepare a saturated solution, sonicated for 3-5 min, dispersed evenly and then taken out, centrifuged at 12000 rpm for 5 min. The supernatant was drawn and diluted at a certain multiple, injected to the HPLC, the peak area was recorded, the sample concentration was calculated, and the pH of undiluted samples was determined.

- hygroscopicity (in words) [1]: slightly hygroscopic
- Solubility (mg/mL) 0.1M HCl [2]: >2.744 mg/mL
- Solubility (mg/mL) pH 4.5 [2]: 0.020 mg/mL
- Solubility (mg/mL) pH 6.8 [2]: 0.012 mg/mL
- solubility in water compared with the free base (in words) [2]: obviously improved
- Solubility (mg/mL) H2O [2]: 1.063 mg/mL (≈ 2.59 mM)
- solid phase stability (in words) [3]: good stability
- Purity (%) ([3]; 60° C.-0 day): 99.73%
- Total impurities (%) ([3]; 60° C.-0 day): 0.27%
- Purity (%) ([3]; 60° C.-7 days, sealed): 99.78%
- Total impurities (%) ([3]; 60° C.-7 days, sealed): 0.22%
- Purity (%) ([3]; 60° C.-21 days, sealed): 99.75%
- Total impurities (%) ([3]; 60° C.-21 days, sealed): 0.25%
SMILES: CS(=O)(=O)C1(c2cc(-c3cnc(N)cc3Cl)nc(N3CCOCC3)n2)CC1 [crystal form A]

- hygroscopicity (in words) [1]: slightly hygroscopic
- Solubility (mg/mL) 0.1M HCl [2]: >2.488 mg/mL
- Solubility (mg/mL) pH 4.5 [2]: 0.026 mg/mL
- Solubility (mg/mL) pH 6.8 [2]: 0.012 mg/mL
- solubility in water compared with the free base (in words) [2]: obviously improved
- Solubility (mg/mL) H2O [2]: 0.946 mg/mL (≈ 2.31 mM)
- solid phase stability (in words) [3]: good stability
- Purity (%) ([3]; 60° C.-0 day): 99.74%
- Total impurities (%) ([3]; 60° C.-0 day): 0.26%
- Purity (%) ([3]; 60° C.-7 days, sealed): 99.50%
- Total impurities (%) ([3]; 60° C.-7 days, sealed): 0.50%
- Purity (%) ([3]; 60° C.-21 days, sealed): 99.74%
- Total impurities (%) ([3]; 60° C.-21 days, sealed): 0.26%
SMILES: CS(=O)(=O)C1(c2cc(-c3cnc(N)cc3Cl)nc(N3CCOCC3)n2)CC1 [crystal form B-1]

- hygroscopicity (in words) [1]: almost no hygroscopicity
- moisture absorbed [1]: 0.17%
- Solubility (mg/mL) 0.1M HCl [2]: 1.875 mg/mL (≈ 4.57 mM)
- Solubility (mg/mL) pH 4.5 [2]: 0.027 mg/mL
- Solubility (mg/mL) pH 6.8 [2]: 0.010 mg/mL
- solubility in water compared with the free base (in words) [2]: obviously improved
- Solubility (mg/mL) H2O [2]: 0.174 mg/mL (≈ 0.424 mM)
- solid phase stability (in words) [3]: good stability
- Purity (%) ([3]; 60° C.-0 day): 99.73%
- Total impurities (%) ([3]; 60° C.-0 day): 0.27%
- Purity (%) ([3]; 60° C.-7 days, sealed): 99.74%
- Total impurities (%) ([3]; 60° C.-7 days, sealed): 0.26%
- Purity (%) ([3]; 60° C.-21 days, sealed): 99.75%
- Total impurities (%) ([3]; 60° C.-21 days, sealed): 0.25%
SMILES: CS(=O)(=O)C1(c2cc(-c3cnc(N)cc3Cl)nc(N3CCOCC3)n2)CC1 [crystal form C]

- hygroscopicity (in words) [1]: almost no hygroscopicity
- moisture absorbed [1]: 0.14%
- Solubility (mg/mL) 0.1M HCl [2]: 1.195 mg/mL (≈ 2.92 mM)
- Solubility (mg/mL) pH 4.5 [2]: 0.031 mg/mL
- Solubility (mg/mL) pH 6.8 [2]: 0.013 mg/mL
- solubility in water compared with the free base (in words) [2]: slightly improved
- Solubility (mg/mL) H2O [2]: 0.023 mg/mL (≈ 0.0561 mM)
- solid phase stability (in words) [3]: good stability
- Purity (%) ([3]; 60° C.-0 day): 98.37%
- Total impurities (%) ([3]; 60° C.-0 day): 1.63%
- Purity (%) ([3]; 60° C.-7 days, sealed): 98.22%
- Total impurities (%) ([3]; 60° C.-7 days, sealed): 1.78%
- Purity (%) ([3]; 60° C.-21 days, sealed): 98.25%
- Total impurities (%) ([3]; 60° C.-21 days, sealed): 1.75%
SMILES: CS(=O)(=O)C1(c2cc(-c3cnc(N)cc3Cl)nc(N3CCOCC3)n2)CC1 [crystal form D-2]

- hygroscopicity (in words) [1]: almost no hygroscopicity
- moisture absorbed [1]: 0.12%
SMILES: CS(=O)(=O)C1(c2cc(-c3cnc(N)cc3Cl)nc(N3CCOCC3)n2)CC1 [crystal form E]

- hygroscopicity (in words) [1]: almost no hygroscopicity
- moisture absorbed [1]: 0.26%
SMILES: CS(=O)(=O)C1(c2cc(-c3cnc(N)cc3Cl)nc(N3CCOCC3)n2)CC1 [crystal form F]

- Concentration ([4]; 50% acetonitrile): 10998 µg/mL
- Concentration ([4]; acetone): 28464 µg/mL
- Concentration ([4]; acetonitrile): 13724 µg/mL
- solubility ([4]; aqueous with cosolvent or surfactant or cyclodextrin, 50% acetonitrile): 11000 µg/mL (≈ 26.8 mM)
- Concentration ([4]; ethanol): 4680 µg/mL
- Concentration ([4]; ethyl acetate): 12441 µg/mL
- Concentration ([4]; isopropanol): 1837 µg/mL
- Concentration ([4]; methanol): 9459 µg/mL
- Concentration ([4]; methyl tert-butyl ether): 1044 µg/mL
- solubility ([4]; organic solvent or mixture, acetone): 28500 µg/mL (≈ 69.4 mM)
- solubility ([4]; organic solvent or mixture, acetonitrile): 13700 µg/mL (≈ 33.5 mM)
- solubility ([4]; organic solvent or mixture, ethanol): > 4680 µg/mL
- solubility ([4]; organic solvent or mixture, ethyl acetate): 12400 µg/mL (≈ 30.4 mM)
- solubility ([4]; organic solvent or mixture, isopropanol): > 1840 µg/mL
- solubility ([4]; organic solvent or mixture, methanol): > 9460 µg/mL
- solubility ([4]; organic solvent or mixture, methyl tert-butyl ether): > 1040 µg/mL
- solubility ([4]; organic solvent or mixture, tetrahydrofuran): 78100 µg/mL (≈ 191 mM)
- Concentration ([4]; tetrahydrofuran): 78135 µg/mL
- solubility ([4]; water): 185 µg/mL (≈ 0.451 mM)
- Concentration ([4]; water): 185 µg/mL
- hygroscopicity (in words) [1]: almost no hygroscopicity
- water absorbed ([1]; humidity increased to 90% RH at 25° C.): 0.084%
SMILES: CS(=O)(=O)C1(c2cc(-c3cnc(N)cc3Cl)nc(N3CCOCC3)n2)CC1 [crystal form I, 4-chloro-5-(6-(1-(methylsulfonyl)cyclopropyl)-2-morpholinopyrimidin-4-yl)pyridin-2-amine]
